Results reported in US3998811A, “Optically active 1,4-benzodiazepines and process for the preparation thereof” (CRC Compagnia di Recerca Chimica S.A., priority 1971, dated 1976).

Key:
[1] = tested on: mice; experiment: Hypnotic effect, mice; format: in vivo; settings: relative to chlordiazepoxide = 1.00, larger value = less effective
Method: (§1) The pharmacalogical activity of the novel compounds of this invention was evaluated by standard methods such as the anticonvulsant effect against pentylene tetrazole shock and maximal and minimal electroshock, muscle relaxing ability, the fighting test, and hypnotic effect. These standard test are described in detail in the literature, for example, in L. O. Randall, C. L. Schenkel, R. F. Banziger, Curr. Ther. Res., Clin. Exp., 590 (1965), and M. I. Gluckman, Curr. Ther. Res., Clin. Exp., 7,721 (1965).
(§2) This Example illustrates the pharmacological effectiveness of the compounds of this invention. A number of the compounds of this invention were tested for their pharmacological effect on the CNS by the procedures described above. Also tested were the corresponding racemic mixtures and three commercial tranquillizers:
(§3) The results of the tests are shown in Table IV wherein the relative potencies compared with that of chlordiazepoxide which is assigned an activity of 1.00. […] It can also be seen that the pharmaceutically active compounds of this invention compare favorably with some commercially useful tranquillizers and even surpass them in some respects.

[2] = tested on: mice; experiment: Anticonvulsant effect against pentylene tetrazole shock, mice; format: in vivo; settings: relative to chlordiazepoxide = 1.00, larger value = less effective
Method: as §1, §2, §3

[3] = tested on: mice; experiment: Anticonvulsant effect against minimal electroshock, mice; format: in vivo; settings: relative to chlordiazepoxide = 1.00, larger value = less effective
Method: as §1, §2, §3

[4] = tested on: mice; experiment: Fighting test, mice; format: in vivo; settings: relative to chlordiazepoxide = 1.00, larger value = less effective
Method: as §1, §2, §3

[5] = tested on: mice; experiment: Muscle relaxation (muscle relaxing ability), mice; format: in vivo; settings: relative to chlordiazepoxide = 1.00, larger value = less effective
Method: as §1, §2, §3

[6] = tested on: mice; experiment: Anticonvulsant effect against maximal electroshock, mice; format: in vivo; settings: relative to chlordiazepoxide = 1.00, larger value = less effective
Method: as §1, §2, §3

[7] = LD 50 P.O., mice; settings: mouse, in vivo, po
[8] = tested on: experimental animals; settings: R- form; even at low dosages; cited from earlier work
[9] = S- form; cited from earlier work

## CC1N=C(c2ccccc2)c2cc(Cl)ccc2NC1=O (racemic) [20 (Rac.)]
[1]
  Relative potency, hypnotic effect: 2.30
[2]
  Relative potency, anticonvulsant effect, pentylene tetrazole: 30.40
[3]
  Relative potency, anticonvulsant effect, minimal electro shock: 5.00
[4]
  Relative potency, fighting test: 10.4
[5]
  Relative potency, muscle relaxation: 9.60
[6]
  Relative potency, anticonvulsant effect, maximal electro shock: 8.20

## O=C1Nc2ccc(Cl)cc2C(c2ccccc2)=NC1Cc1ccccc1 (racemic) [21 (Rac.)]
[1]
  Relative potency, hypnotic effect: 10.70
[2]
  Relative potency, anticonvulsant effect, pentylene tetrazole: 40.50
[3]
  Relative potency, anticonvulsant effect, minimal electro shock: 20.60
[4]
  Relative potency, fighting test: 45.8
[5]
  Relative potency, muscle relaxation: 40.70
[6]
  Relative potency, anticonvulsant effect, maximal electro shock: 10.30

## O=C1Nc2ccc(Cl)cc2C(c2ccccc2)=NC1Cc1ccc(O)cc1 (racemic) [22 (Rac.)]
[1]
  Relative potency, hypnotic effect: 18.60
[2]
  Relative potency, anticonvulsant effect, pentylene tetrazole: 75.6
[3]
  Relative potency, anticonvulsant effect, minimal electro shock: 16.70
[4]
  Relative potency, fighting test: 56.30
[5]
  Relative potency, muscle relaxation: 46.20
[6]
  Relative potency, anticonvulsant effect, maximal electro shock: 65.40

## O=C1Nc2ccc(Cl)cc2C(c2ccccc2)=NC1Cc1c[nH]c2ccccc12 (racemic) [23 (Rac.)]
[1]
  Relative potency, hypnotic effect: 8.30
[2]
  Relative potency, anticonvulsant effect, pentylene tetrazole: 30.60
[3]
  Relative potency, anticonvulsant effect, minimal electro shock: 14.60
[4]
  Relative potency, fighting test: 80.30
[5]
  Relative potency, muscle relaxation: 60.50
[6]
  Relative potency, anticonvulsant effect, maximal electro shock: 38.70

## CC(O)C1N=C(c2ccccc2)c2cc(Cl)ccc2NC1=O (racemic) [24 (Rac.)]
[1]
  Relative potency, hypnotic effect: 3.20
[2]
  Relative potency, anticonvulsant effect, pentylene tetrazole: 105.60
[3]
  Relative potency, anticonvulsant effect, minimal electro shock: 3.27
[4]
  Relative potency, fighting test: 16.30
[5]
  Relative potency, muscle relaxation: 5.42
[6]
  Relative potency, anticonvulsant effect, maximal electro shock: 12.60

## CC(C)C1N=C(c2ccccc2)c2cc(Cl)ccc2NC1=O (racemic) [25 (Rac.)]
[1]
  Relative potency, hypnotic effect: 4.20
[2]
  Relative potency, anticonvulsant effect, pentylene tetrazole: 20.4
[3]
  Relative potency, anticonvulsant effect, minimal electro shock: 4.70
[4]
  Relative potency, fighting test: 9.30
[5]
  Relative potency, muscle relaxation: 8.60
[6]
  Relative potency, anticonvulsant effect, maximal electro shock: 20.30

## CC1N=C(c2ccccc2)c2cc(Cl)ccc2N(C)C1=O (racemic) [26 (Rac.)]
[1]
  Relative potency, hypnotic effect: 2.70
[2]
  Relative potency, anticonvulsant effect, pentylene tetrazole: 47.30
[3]
  Relative potency, anticonvulsant effect, minimal electro shock: 2.10
[4]
  Relative potency, fighting test: 8.94
[5]
  Relative potency, muscle relaxation: 6.54
[6]
  Relative potency, anticonvulsant effect, maximal electro shock: 10.20

## CN1C(=O)C(OCC(O)CO)N=C(c2ccccc2)c2cc(Cl)ccc21 (racemic) [31 (Rac.)]
[1]
  Relative potency, hypnotic effect: 2.30
[2]
  Relative potency, anticonvulsant effect, pentylene tetrazole: 105.4
[3]
  Relative potency, anticonvulsant effect, minimal electro shock: 2.30
[4]
  Relative potency, fighting test: 8.74
[5]
  Relative potency, muscle relaxation: 9.60
[6]
  Relative potency, anticonvulsant effect, maximal electro shock: 4.72

## C[C@@H]1N=C(c2ccccc2)c2cc(Cl)ccc2NC1=O [20 (S)]
[7]
  LD50: 2300 mg/kg
[1]
  Relative potency, hypnotic effect: 0.4
[2]
  Relative potency, anticonvulsant effect, pentylene tetrazole: 4.1
[3]
  Relative potency, anticonvulsant effect, minimal electro shock: 0.20
[4]
  Relative potency, fighting test: 1.0
[5]
  Relative potency, muscle relaxation: 1.0
[6]
  Relative potency, anticonvulsant effect, maximal electro shock: 1.32

## O=C1Nc2ccc(Cl)cc2C(c2ccccc2)=N[C@H]1Cc1ccccc1 [21 (S)]
[7]
  LD50: 1600 mg/kg
[1]
  Relative potency, hypnotic effect: 2.10
[2]
  Relative potency, anticonvulsant effect, pentylene tetrazole: 5.30
[3]
  Relative potency, anticonvulsant effect, minimal electro shock: 2.30
[4]
  Relative potency, fighting test: 4.50
[5]
  Relative potency, muscle relaxation: 4.10
[6]
  Relative potency, anticonvulsant effect, maximal electro shock: 4.82

## O=C1Nc2ccc(Cl)cc2C(c2ccccc2)=N[C@H]1Cc1ccc(O)cc1 [22 (S)]
[7]
  LD50: 1850 mg/kg
[1]
  Relative potency, hypnotic effect: 4.20
[2]
  Relative potency, anticonvulsant effect, pentylene tetrazole: 7.3
[3]
  Relative potency, anticonvulsant effect, minimal electro shock: 1.42
[4]
  Relative potency, fighting test: 5.70
[5]
  Relative potency, muscle relaxation: 4.30
[6]
  Relative potency, anticonvulsant effect, maximal electro shock: 6.30

## O=C1Nc2ccc(Cl)cc2C(c2ccccc2)=N[C@H]1Cc1c[nH]c2ccccc12 [23 (S)]
[7]
  LD50: 2300 mg/kg
[1]
  Relative potency, hypnotic effect: 0.80
[2]
  Relative potency, anticonvulsant effect, pentylene tetrazole: 3.20
[3]
  Relative potency, anticonvulsant effect, minimal electro shock: 1.70
[4]
  Relative potency, fighting test: 7.10
[5]
  Relative potency, muscle relaxation: 6.20
[6]
  Relative potency, anticonvulsant effect, maximal electro shock: 4.10

## C[C@@H](O)[C@@H]1N=C(c2ccccc2)c2cc(Cl)ccc2NC1=O [24 (S)]
[7]
  LD50: 6000 mg/kg
[1]
  Relative potency, hypnotic effect: 0.51
[2]
  Relative potency, anticonvulsant effect, pentylene tetrazole: 10.30
[3]
  Relative potency, anticonvulsant effect, minimal electro shock: 0.45
[4]
  Relative potency, fighting test: 1.70
[5]
  Relative potency, muscle relaxation: 0.62
[6]
  Relative potency, anticonvulsant effect, maximal electro shock: 1.30

## CC(C)[C@@H]1N=C(c2ccccc2)c2cc(Cl)ccc2NC1=O [25 (S)]
[7]
  LD50: 1850 mg/kg
[1]
  Relative potency, hypnotic effect: 0.80
[2]
  Relative potency, anticonvulsant effect, pentylene tetrazole: 1.80
[3]
  Relative potency, anticonvulsant effect, minimal electro shock: 0.30
[4]
  Relative potency, fighting test: 1.40
[5]
  Relative potency, muscle relaxation: 1.15
[6]
  Relative potency, anticonvulsant effect, maximal electro shock: 1.75

## C[C@@H]1N=C(c2ccccc2)c2cc(Cl)ccc2N(C)C1=O [26 (S)]
[7]
  LD50: 2600 mg/kg
[1]
  Relative potency, hypnotic effect: 0.80
[2]
  Relative potency, anticonvulsant effect, pentylene tetrazole: 5.80
[3]
  Relative potency, anticonvulsant effect, minimal electro shock: 0.10
[4]
  Relative potency, fighting test: 1.00
[5]
  Relative potency, muscle relaxation: 0.70
[6]
  Relative potency, anticonvulsant effect, maximal electro shock: 0.90

## CN1C(=O)C(OCC(O)CO)N=C(c2ccccc2)c2cc(Cl)ccc21 [31 (S)]
[7]
  LD50: 6000 mg/kg
[1]
  Relative potency, hypnotic effect: 0.42
[2]
  Relative potency, anticonvulsant effect, pentylene tetrazole: 10.30
[4]
  Relative potency, fighting test: 1.0
[5]
  Relative potency, muscle relaxation: 0.80
[6]
  Relative potency, anticonvulsant effect, maximal electro shock: 0.38

## CN1CCN=C(c2ccccc2)c2cc(Cl)ccc21 [Medazepam, 7-chloro-5-phenyl-1-methyl-1,2-dihydro-3H-1,4-benzodiazepine]
[7]
  LD50: 1420 mg/kg
[1]
  Relative potency, hypnotic effect: 0.30
[2]
  Relative potency, anticonvulsant effect, pentylene tetrazole: 6.2
[3]
  Relative potency, anticonvulsant effect, minimal electro shock: 0.32
[4]
  Relative potency, fighting test: 1.0
[5]
  Relative potency, muscle relaxation: 1.3
[6]
  Relative potency, anticonvulsant effect, maximal electro shock: 1.03

## O=C1Nc2ccc(Cl)cc2C(c2ccccc2)=NC1O (stereo not drawn) [Oxazepam, 7-chloro-1,3-dihydro-3-hydroxy-5-phenyl-2H-1,4-benzodiazepine-2-one]
[7]
  LD50: 3700 mg/kg
[5]
  Relative potency, muscle relaxation: 0.62

## CC[C@H](CO)NCCN[C@H](CC)CO [R- form, Ethambutole]
[8]
  known adverse effect in experimental animals: causes blindness in experimental animals, even at low dosages

## CC[C@@H](CO)NCCN[C@@H](CC)CO [S- form of Ethambutole, Ethambutole]
[9]
  known pharmacological action: anti-tuberculous agent
